These compounds were tested against T1, c-kit mutant D816V (Homo sapiens, UniProt P10721, D816V/DEL694-753) (assay: c-Kit mutant D816V biochemical assay, AlphaScreen). Conditions: c-kit D816V biochemical inhibitory activity; read-out: Biochemical activity (IC50 μM) Kit D816V.
T1 construct: residues 551-934, kinase insertion domain residues 694-753 deleted; 6x-histidine (N); made in house; host or cells: E. coli Arctic Express (DE3) RIL (Stratagene)
Procedure: Compounds to be tested were dissolved in DMSO to a concentration of 20 mM. These were diluted 30 μl into 120 μl of DMSO (4 mM) and 1 μl was added to an assay plate. These were then serially diluted 1:3 (50 μl to 100 μl DMSO) for a total of 8 points. Plates were prepared such that each kinase reaction is 20 μl in 1× kinase buffer (25 mM HEPES, pH 7.2, 8 mM MgCl2, 2 mM MnCl2, 50 mM NaCl, 0.01% Brij, 1 mM DTT, 0.01% BSA), 5% DMSO and 10 μM ATP. […] After incubation of the kinase reaction for 30 minutes at room temperature, 5 μl of donor beads (Streptavidin coated beads (Perkin Elmer Life Science) final concentration 7.5 μg/ml) in stop buffer (25 mM Hepes pH 7.5, 100 mM EDTA, 0.01% BSA) was added, the sample was mixed and incubated for 20 minutes at room temperature before adding 5 μl of acceptor beads (PY20 coated beads (Perkin Elmer Life Science) final concentration 7.5 μg/ml) in stop buffer. The samples were incubated for 60 minutes at room temperature and the signal per well was read on EnVision reader. […] The signal vs. compound concentration was used to determine the IC50.
Cells were grown in Terrific Broth (TB) media to an OD600 of 0.6 at 37° C. at which temperature was reduced to 10° C., protein was induced with 1.0 mM IPTG for 18 hours and harvested by centrifugation at 8000×g for 20 minutes. Cells were re-suspended in 0.1M KPO4 pH 8.0, 250 mM NaCl, 10% Glycerol, 0.75% NP-40, 25 mM Imidazole, 5 mM BME with 0.2 mg/ml Lysosyme, 2.0 mM PMSF, 25 μg/ml DNAse I, incubated in ice for 30 minutes and lysed with a cell disruptor (MicroFluidics). The lysate was clarified by centrifugation at 20,000×g for 2 hours. The protein was captured with Talon resin (Clontech). Contaminating proteins were washed off with 25 mM Tris-HCl pH 8.3, 250 mM NaCl, 15% Glycerol, 1% Triton X-100, and protein eluted using 100 mM EDTA. The protein was further purified using Gel Filtration column 26/600 Superdex 200 (GE) in 50 mM Tris-HCl, pH 8.0, 250 mM NaCl, 15% Glycerol, 5 mM BME. The protein was aliquoted and flash-frozen in liquid Nitrogen.

T1 sequence (P10721 with tags, fused parts or gaps DEL694-753/D816V): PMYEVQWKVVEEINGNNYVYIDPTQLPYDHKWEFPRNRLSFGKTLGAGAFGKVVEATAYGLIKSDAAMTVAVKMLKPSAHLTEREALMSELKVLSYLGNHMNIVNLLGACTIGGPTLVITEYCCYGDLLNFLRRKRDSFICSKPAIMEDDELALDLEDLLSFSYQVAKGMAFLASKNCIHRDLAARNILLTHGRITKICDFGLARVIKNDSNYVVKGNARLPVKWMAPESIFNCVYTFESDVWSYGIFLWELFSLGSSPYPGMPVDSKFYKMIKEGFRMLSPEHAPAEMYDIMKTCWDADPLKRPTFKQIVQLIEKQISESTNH

Which IC50 does the source give for `O=C(Nc1ccc(OC(F)(F)F)cc1)NC1CCN(c2ncnc3[nH]ccc23)CC1` [P-0513, 1-[1-(7H-pyrrolo[2,3-d]pyrimidin-4-yl)-4-piperidyl]-3-[4-(trifluoromethoxy)phenyl]urea] here?
The IC50 was 10 to 200 µM.

How did the IC50 turn out when `C[C@@H]1CN(c2ncnc3[nH]c(-c4ccc(Cl)cc4)cc23)CCN1C(=O)N[C@H](C)c1ccc(F)cc1` [P-0022, (2R)-4-[6-(4-chlorophenyl)-7H-pyrrolo[2,3-d]pyrimidin-4-yl]-N-[(1R)-1-(4-fluorophenyl)ethyl]-2-methyl-piperazine-1-carboxamide] was run?
Its IC50 is 0.0001 to 1 µM.

For `Cc1ccccc1C(=O)c1c[nH]c2ncnc(N3CCN(C(=O)OC(C)(C)C)CC3)c12` [P-0187, tert-butyl 4-[5-(2-methylbenzoyl)-7H-pyrrolo[2,3-d]pyrimidin-4-yl]piperazine-1-carboxylate], which IC50 is on record?
Its IC50 is 0.0001 to 1 µM.

How did the IC50 turn out when `O=C(Nc1ccc(C(F)(F)F)cc1)NC1CCN(c2ncnc3[nH]ccc23)CC1` [P-0514, 1-[1-(7H-pyrrolo[2,3-d]pyrimidin-4-yl)-4-piperidyl]-3-[4-(trifluoromethyl)phenyl]urea] was run?
The IC50 was 10 to 200 µM.

Which IC50 does the source give for `C[C@H]1CN(c2ncnc3[nH]c(-c4ccncc4)cc23)CCN1C(=O)NCc1ccc(F)cc1` [P-0041, (2S)-N-[(4-fluorophenyl)methyl]-2-methyl-4-[6-(4-pyridyl)-7H-pyrrolo[2,3-d]pyrimidin-4-yl]piperazine-1-carboxamide] here?
Its IC50 is 0.0001 to 1 µM.

`O=C(NCc1ccc(F)cc1)N1CCN(c2ncnc3[nH]c(-c4ccc(F)cc4)cc23)CC1` [P-0090, N-[(4-fluorophenyl)methyl]-4-[6-(4-fluorophenyl)-7H-pyrrolo[2,3-d]pyrimidin-4-yl]piperazine-1-carboxamide] was tested. Which IC50 did it give?
Its IC50 is 0.0001 to 1 µM.

`COc1ncc(F)cc1CNC(=O)N1CCN(c2ncnc3[nH]c(-c4cccnc4)cc23)CC1` [P-0140, N-[(5-fluoro-2-methoxy-3-pyridyl)methyl]-4-[6-(3-pyridyl)-7H-pyrrolo[2,3-d]pyrimidin-4-yl]piperazine-1-carboxamide] was tested. Which IC50 did it give?
Its IC50 is 1 to 10 µM.

How did the IC50 turn out when `COc1cccc([C@@H](C)NC(=O)N2CCN(c3ncnc4[nH]c(-c5ccc(Cl)cc5)cc34)C[C@H]2C)c1` [P-0025, (2R)-4-[6-(4-chlorophenyl)-7H-pyrrolo[2,3-d]pyrimidin-4-yl]-N-[(1R)-1-(3-methoxyphenyl)ethyl]-2-methyl-piperazine-1-carboxamide] was run?
The IC50 was 10 to 200 µM.

For `C[C@H](NC(=O)N1CCN(c2ncnc3[nH]c(-c4ccncc4)cc23)C[C@@H]1C)c1ccc(Cl)cc1` [P-0050, (2S)-N-[(1S)-1-(4-chlorophenyl)ethyl]-2-methyl-4-[6-(4-pyridyl)-7H-pyrrolo[2,3-d]pyrimidin-4-yl]piperazine-1-carboxamide], which IC50 is on record?
The IC50 was 0.0001 to 1 µM.

How did the IC50 turn out when `COc1ccc(CNC(=O)N2CCN(c3ncnc4[nH]c(-c5ccc(F)cc5)cc34)CC2)cn1` [P-0129, 4-[6-(4-fluorophenyl)-7H-pyrrolo[2,3-d]pyrimidin-4-yl]-N-[(6-methoxy-3-pyridyl)methyl]piperazine-1-carboxamide] was run?
The IC50 was 0.0001 to 1 µM.

For `Cc1cc2c(-c3ccc(NS(=O)(=O)c4ccc(C(C)C)cc4)cc3)ncnc2[nH]1` [P-0306, 4-isopropyl-N-[4-(6-methyl-7H-pyrrolo[2,3-d]pyrimidin-4-yl)phenyl]benzenesulfonamide], which IC50 is on record?
Its IC50 is 1 to 10 µM.

`C[C@H](NC(=O)N1CCN(c2ncnc3[nH]c(-c4ccc(C#N)cc4)cc23)C[C@H]1C)c1cccc(OC(F)F)c1` [P-0699, (2R)-4-[6-(4-cyanophenyl)-7H-pyrrolo[2,3-d]pyrimidin-4-yl]-N-[(1S)-1-[3-(difluoromethoxy)phenyl]ethyl]-2-methyl-piperazine-1-carboxamide] was tested. Which IC50 did it give?
Its IC50 is 0.0001 to 1 µM.

Which IC50 does the source give for `CCCS(=O)(=O)Nc1ccc(-c2ncnc3cc(OC)c(OC)cc23)cc1F` [P-0275, N-[4-(6,7-dimethoxyquinazolin-4-yl)-2-fluoro-phenyl]propane-1-sulfonamide] here?
Its IC50 is 1 to 10 µM.

How did the IC50 turn out when `COc1ccc([C@@H](C)NC(=O)N2CCN(c3ncnc4[nH]c(-c5ccc(F)cc5)cc34)CC2)cc1` [P-0145] was run?
The IC50 was 10 to 200 µM.

How did the IC50 turn out when `C[C@H](NC(=O)N1CCN(c2ncnc3cc(Br)sc23)CC1)c1ccc(F)cc1` [P-0597, 4-(6-bromothieno[3,2-d]pyrimidin-4-yl)-N-[(1S)-1-(4-fluorophenyl)ethyl]piperazine-1-carboxamide] was run?
The IC50 was 1 to 10 µM.

With `O=C(NCc1ccc(Cl)cc1)N1CCN(c2ncnc3[nH]c(C4CC4)cc23)CC1` [P-0138, N-[(4-chlorophenyl)methyl]-4-(6-cyclopropyl-7H-pyrrolo[2,3-d]pyrimidin-4-yl)piperazine-1-carboxamide] as the compound, how does the IC50 read?
The IC50 was 0.0001 to 1 µM.

How did the IC50 turn out when `Cn1cc(-c2cc3c(N4CCC(NS(=O)(=O)c5ccc(F)cc5)CC4)ncnc3[nH]2)cn1` [P-0490, 4-fluoro-N-[1-[6-(1-methylpyrazol-4-yl)-7H-pyrrolo[2,3-d]pyrimidin-4-yl]-4-piperidyl]benzenesulfonamide] was run?
The IC50 was 1 to 10 µM.

`O=C(NCc1cccc(F)c1)N1CCN(c2ncnc3[nH]ccc23)CC1` [P-0163, N-[(3-fluorophenyl)methyl]-4-(7H-pyrrolo[2,3-d]pyrimidin-4-yl)piperazine-1-carboxamide] was tested. Which IC50 did it give?
Its IC50 is 10 to 200 µM.

`C[C@H](NC(=O)N1CCN(c2ncnc3[nH]c(-c4ccc(C#N)cc4)cc23)CC1(C)C)c1ccc(F)cc1` [P-0685, 4-[6-(4-cyanophenyl)-7H-pyrrolo[2,3-d]pyrimidin-4-yl]-N-[(1S)-1-(4-fluorophenyl)ethyl]-2,2-dimethyl-piperazine-1-carboxamide] was tested. Which IC50 did it give?
Its IC50 is 1 to 10 µM.

`C[C@H]1CN(c2ncnc3[nH]c(-c4ccncc4)cc23)CCN1C(=O)NCc1cccc(Cl)c1` [P-0040, (2S)-N-[(3-chlorophenyl)methyl]-2-methyl-4-[6-(4-pyridyl)-7H-pyrrolo[2,3-d]pyrimidin-4-yl]piperazine-1-carboxamide] was tested. Which IC50 did it give?
Its IC50 is 0.0001 to 1 µM.

Which IC50 does the source give for `CC[C@H](NC(=O)N1CCN(c2ncnc3[nH]c(-c4ccncc4)cc23)C[C@@H]1C)c1ccccc1` [P-0048, (2S)-2-methyl-N-[(1S)-1-phenylpropyl]-4-[6-(4-pyridyl)-7H-pyrrolo[2,3-d]pyrimidin-4-yl]piperazine-1-carboxamide] here?
The IC50 was 0.0001 to 1 µM.

How did the IC50 turn out when `O=C(NCCc1ccc(Cl)cc1)N1CCN(c2ncnc3[nH]c(-c4ccc(F)cc4)cc23)CC1` [P-0161, N-[2-(4-chlorophenyl)ethyl]-4-[6-(4-fluorophenyl)-7H-pyrrolo[2,3-d]pyrimidin-4-yl]piperazine-1-carboxamide] was run?
Its IC50 is 0.0001 to 1 µM.

`NS(=O)(=O)c1ccc(-c2ncnc3[nH]c(-c4ccc(F)cc4)cc23)c(F)c1` [P-0376, 3-fluoro-4-[6-(4-fluorophenyl)-7H-pyrrolo[2,3-d]pyrimidin-4-yl]benzenesulfonamide] was tested. Which IC50 did it give?
Its IC50 is 0.0001 to 1 µM.

`CS(=O)(=O)Nc1ccccc1-c1ncnc2[nH]c(-c3ccc(F)cc3)cc12` [P-0375, N-[2-[6-(4-fluorophenyl)-7H-pyrrolo[2,3-d]pyrimidin-4-yl]phenyl]methanesulfonamide] was tested. Which IC50 did it give?
Its IC50 is 10 to 200 µM.

Which IC50 does the source give for `O=S(=O)(NC1CCN(c2ncnc3[nH]c(-c4ccc(Cl)cc4)cc23)CC1)c1ccc(F)cc1` [P-0481, N-[1-[6-(4-chlorophenyl)-7H-pyrrolo[2,3-d]pyrimidin-4-yl]-4-piperidyl]-4-fluoro-benzenesulfonamide] here?
Its IC50 is 10 to 200 µM.

With `Cc1cc2c(-c3ccc(NS(=O)(=O)c4ccc(Cl)c(Cl)c4)cc3)ncnc2[nH]1` [P-0316, 3,4-dichloro-N-[4-(6-methyl-7H-pyrrolo[2,3-d]pyrimidin-4-yl)phenyl]benzenesulfonamide] as the compound, how does the IC50 read?
The IC50 was 1 to 10 µM.

With `O=C(NC1CCCC1)N1CCN(c2ncnc3[nH]c(-c4ccc(F)cc4)cc23)CC1` [P-0148, N-cyclopentyl-4-[6-(4-fluorophenyl)-7H-pyrrolo[2,3-d]pyrimidin-4-yl]piperazine-1-carboxamide] as the compound, how does the IC50 read?
The IC50 was 10 to 200 µM.

For `CC(C)(NC(=O)N1CCN(c2ncnc3cc(-c4ccc(F)cc4)sc23)CC1(C)C)c1ccccc1` [P-0678, 4-[6-(4-fluorophenyl)thieno[3,2-d]pyrimidin-4-yl]-2,2-dimethyl-N-(1-methyl-1-phenyl-ethyl)piperazine-1-carboxamide], which IC50 is on record?
The IC50 was 1 to 10 µM.

`COc1cc(-c2cc3c(N4CCC(NS(=O)(=O)c5ccc(C)cc5)CC4)ncnc3[nH]2)ccn1` [P-0660, N-[1-[6-(2-methoxy-4-pyridyl)-7H-pyrrolo[2,3-d]pyrimidin-4-yl]-4-piperidyl]-4-methyl-benzenesulfonamide] was tested. Which IC50 did it give?
The IC50 was 0.0001 to 1 µM.

For `O=C(NCc1ccc(F)cc1)NC1CCN(c2ncnc3[nH]ccc23)CC1` [P-0509, 1-[(4-fluorophenyl)methyl]-3-[1-(7H-pyrrolo[2,3-d]pyrimidin-4-yl)-4-piperidyl]urea], which IC50 is on record?
Its IC50 is 10 to 200 µM.
